Reference: patent US8309563B2, “Quinazoline derivatives useful as anti-tumor medicament” (Shanghai Allist Pharmaceuticals, Inc., priority 2006, dated 2012)
pIC50: −log10 of the molar value. Like-named read-outs stand apart in the source and are kept apart here.

Legend:
[1] = tested on: human skin squamous cancer cell A431 grafted in a nude mouse; assay: Anti-tumor effect on human skin squamous cancer cell A431 grafted in a nude mouse; format: in vivo
Method: A well-growth solid tumor of A431 was selected and incised into several pieces with the size of 2-3 mm; each was grafted into the right armpit of a mouse subcutaneously with a trocar respectively. 5 After 7days, the test compounds were administrated by gastric perfusion through the mouth for 13 days continuously. The long span (a) and the short span (b) of the tumor were measured with a vernier caliper every 4 days. According to the formula V=ab^2/2, the volume (mm^3) of the tumor could be calculated. The test animals were neck-off killed 23 days after the grafting. The test animals were anatomized to obtain the tumor. The tumors were weighed and the inhibitory rate was calculated.

[2] = tested on: BT-474: Human Breast Cancer Cell; assay: Inhibition of cell proliferation, SRB method, BT-474 cells, 5 days; format: cell-based; settings: 120 h, Logit method, read-out: BT474 IC50
Method: 2. Cell Line: BT-474: Human Breast Cancer Cell The cells were incubated with compounds of various concentrations (10-0.001 μm individually) for 5 days. The inhibition of cell proliferation was tested according to the SRB method, and the inhibitory rate was figure out. According to the inhibitory rate, the IC50 was calculated by the Logit method. The anti-tumor activities in vitro were compared.

[3] = tested on: A431 cells (human epidermoid squamous carcinoma cell); assay: Anti-tumor experiment, improved MTT method, A431 cells, 72 h; format: cell-based
Method: The inventive compounds were formulated into 5 concentrations. […] The incubation was continued for another 6 h, and 100 μl SDS was added to end the reaction.
1. Cell Line: A431 Human Epidermoid Squamous Carcinoma Cell

Erb-B2 = biological target: T1, Erb-B2 (Homo sapiens, UniProt P04626); assay: Inhibitory effect on the phosphorylation activity of Erb-B2 in BT474 cells (SDS-PAGE/blot, ECL); format: cell-based; settings: BT474 cells treated […]; FIG. 1; comparison with Iressa
T1 construct: After treated with various compounds for 1.5 h, the cells were collected, cracked; endogenous in cells; host or cells: BT474 human breast cancer cells
Method: The inhibitory effect of compound 8 and compound 14 on the phosphorylation activity of Erb-B2: The concentration of the human breast cancer cells BT474 were adjusted to a suitable concentration, and inoculated into a plate. After treated with various compounds for 1.5 h, the cells were collected, cracked and the protein was adjusted to the same quantity. Following the protein-denaturation, SDS-PAGE was conducted, and transferred to nitric acid cellulose film; Hybriding with the anti-phosphorylation antibody (mono-anti), anti-β-tublin antibody (mono-anti) and anti-mouse-IgG antibody (bi-anti) respectively; Assayed by the ECL kit and the X-ray plate was exposed. According to the size and the density of the corresponding protein band, the inhibitory effect on Erb-B2 kinases can be evaluated.

[4] = A431 cells, * = two results from two experiments, read-out: A431 IC50
[5] = Homo sapiens, A-431, 72 h, A431 cells, 72 h, class symbols, read-out: IC50
[6] = Homo sapiens, A-431, A431 cells, * = two results from two experiments, read-out: A431 IC50

T1 sequence (P04626 23-1255): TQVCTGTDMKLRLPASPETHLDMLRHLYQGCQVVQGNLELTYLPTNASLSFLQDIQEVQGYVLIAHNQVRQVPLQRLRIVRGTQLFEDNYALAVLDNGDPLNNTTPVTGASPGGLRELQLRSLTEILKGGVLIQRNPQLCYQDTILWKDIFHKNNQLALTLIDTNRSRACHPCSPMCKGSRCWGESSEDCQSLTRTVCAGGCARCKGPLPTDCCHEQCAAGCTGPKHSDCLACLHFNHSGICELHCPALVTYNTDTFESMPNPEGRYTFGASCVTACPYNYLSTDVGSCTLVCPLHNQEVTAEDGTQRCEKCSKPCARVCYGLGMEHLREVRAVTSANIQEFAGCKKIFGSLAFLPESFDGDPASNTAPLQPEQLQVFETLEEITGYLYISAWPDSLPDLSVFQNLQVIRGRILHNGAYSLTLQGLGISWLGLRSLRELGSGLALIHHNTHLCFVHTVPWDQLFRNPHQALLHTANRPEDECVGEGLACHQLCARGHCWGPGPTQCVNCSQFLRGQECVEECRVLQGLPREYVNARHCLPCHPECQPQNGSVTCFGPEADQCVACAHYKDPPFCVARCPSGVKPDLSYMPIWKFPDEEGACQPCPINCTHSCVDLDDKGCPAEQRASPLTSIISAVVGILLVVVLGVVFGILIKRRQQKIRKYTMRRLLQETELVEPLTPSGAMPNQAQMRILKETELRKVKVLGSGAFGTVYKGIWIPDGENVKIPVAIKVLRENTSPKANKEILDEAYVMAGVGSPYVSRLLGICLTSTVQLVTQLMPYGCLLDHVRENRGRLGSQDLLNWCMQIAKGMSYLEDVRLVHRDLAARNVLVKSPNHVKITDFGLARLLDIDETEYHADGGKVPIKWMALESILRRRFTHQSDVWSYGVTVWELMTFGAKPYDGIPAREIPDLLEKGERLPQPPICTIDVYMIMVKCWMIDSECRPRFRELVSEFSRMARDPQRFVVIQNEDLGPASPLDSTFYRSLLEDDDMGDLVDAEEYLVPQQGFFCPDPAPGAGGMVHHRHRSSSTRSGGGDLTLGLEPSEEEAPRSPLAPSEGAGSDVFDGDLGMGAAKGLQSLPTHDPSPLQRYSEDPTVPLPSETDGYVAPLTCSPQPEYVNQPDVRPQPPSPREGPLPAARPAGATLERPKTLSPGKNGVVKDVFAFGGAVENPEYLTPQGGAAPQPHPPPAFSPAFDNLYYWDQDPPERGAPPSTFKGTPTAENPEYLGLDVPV

pIC50 [2] | pIC50 [3, 5] | pIC50 [3, 6] | SMILES | also measured
9.00 | > 6.00 | 6.74 | C=CC(=O)Nc1ccc2ncnc(Nc3ccc(OCc4cccc(F)c4)c(Cl)c3)c2c1 [Example 8, N-{4-[3-chloro-4-(3-fluorobenzyloxy)-phenylamino]-quinazolin6-yl}-acrylamide] | inhibition % ([1]; 25 mg/kg ig × 13, by tumor weight): 29.99%; Weight of the tumor (g) x ± SD ([1]; 25 mg/kg ig × 13, day 23 after grafting): 0.79 ± 0.20 g; Weight of the test animals (g) (tumor-off) ([1]; 25 mg/kg ig × 13, nude mouse A431 graft): 21.58 ± 2.18 g; inhibition % ([1]; 50 mg/kg ig × 13, by tumor weight): 38.67%; Weight of the tumor (g) x ± SD ([1]; 50 mg/kg ig × 13, day 23 after grafting): 0.69 ± 0.17 g; Weight of the test animals (g) (tumor-off) ([1]; 50 mg/kg ig × 13, nude mouse A431 graft): 22.87 ± 3.96 g; inhibition % ([1]; 100 mg/kg ig × 13, by tumor weight): 43.63%; Weight of the tumor (g) x ± SD ([1]; 100 mg/kg ig × 13, day 23 after grafting): 0.64 ± 0.23 g; Weight of the test animals (g) (tumor-off) ([1]; 100 mg/kg ig × 13, nude mouse A431 graft): 22.13 ± 1.83 g; pIC50 [3, 4]: 6.96; inhibitory activity on phosphorylation of Erb-B2 compared with Iressa (Erb-B2): more superior inhibitory activity
6.55 | 5.00 to 6.00 | 5.91 | Cc1ccc(S(=O)(=O)Nc2ccc3ncnc(Nc4ccc(OCc5cccc(F)c5)c(Cl)c4)c3c2)cc1 [Example 9, N-{4-[-3-chloro-4-(3-fluorobenzyloxy)-phenylamino]-quinazolin-6-yl}-p-methylbenzenesulfonamide] | 
 | 4.30 to 5.00 |  | CN(C)C/C=C/C(=O)Nc1ccc2ncnc(Nc3ccc(OCc4cccc(F)c4)c(Cl)c3)c2c1 [Example 10, N-{4-[3-chloro-4-(3-fluorobenzyloxy)-phenylamino]-quinazolin-6-yl}-E,4-(dimethylamino)-but-2-enamide] | 
 | > 6.00 |  | CN(C)C/C=C/C(=O)Nc1cc2c(Nc3ccc(OCc4cccc(F)c4)c(Cl)c3)ncnc2cc1OCC(F)(F)F [Example 12] | 
 | 5.00 to 6.00 |  | COc1cc2ncnc(Nc3ccc(OCc4cccc(F)c4)c(Cl)c3)c2cc1NC(=O)/C=C/CN(C)C [Example 13, N-{4-[3-chloro-4-(3-fluorobenzyloxy)-phenylamino]-7-methoxy-quinazolin-6-}-E-4-(dimethylamino)-but-2-enamide] | 
8.16 | 5.00 to 6.00 | 5.76 | C=CC(=O)Nc1cc2c(Nc3ccc(OCc4cccc(F)c4)c(Cl)c3)ncnc2cc1OC [Example 14] | inhibitory activity on phosphorylation of Erb-B2 compared with Iressa (Erb-B2): more superior inhibitory activity
 | 5.00 to 6.00 |  | CN(C)C/C=C/C(=O)Nc1cc2c(Nc3ccc(OCc4cccc(F)c4)c(Cl)c3)ncnc2cc1Cl [Example 15, N-{4-[3-chloro-4-(3-fluorobenzyloxy)-phenylamino]-7-chloro-quinazolin-6-yl}-E,4-(dimethylamino)-but-2-enamide] | 
 | 5.00 to 6.00 |  | C=CC(=O)Nc1cc2c(Nc3ccc(OCc4cccc(F)c4)c(Cl)c3)ncnc2cc1Cl [Example 16, N-{4-[3-chloro-4-(3-fluorobenzyloxy)-phenylamino]-7-chloro-quinazolin-6-yl}-acrylamide] | 
7.37 | > 6.00 | 5.46 | CC(=O)Oc1ccc2ncnc(Nc3ccc(OCc4cccc(F)c4)c(Cl)c3)c2c1 [Example 17, O-{4-[-3-chloro-4-(3-fluorobenzyloxy)-phenylamino]-quinazolin-6-yl}-acetate] | 
 | 4.30 to 5.00 |  | Oc1ccc2ncnc(Nc3ccc(OCc4cccc(F)c4)c(Cl)c3)c2c1 [Example 18, 4-[3-chloro-4-(3-fluorobenzyloxy)-phenylamino]-6-hydroxy-quinazoline] | 
7.10 | > 6.00 | 5.77 | Fc1cccc(COc2ccc(Nc3ncnc4ccc(OCCCN5CCOCC5)cc34)cc2Cl)c1 [Example 20, 4-[3-chloro-4-(3-fluorobenzyloxy)-phenylamino]-6-[3-(4-morpholino)-propoxy]-quinazoline] | 
6.72 | 5.00 to 6.00 | 5.66 | COc1cc2ncnc(Nc3ccc(OCc4cccc(F)c4)c(Cl)c3)c2cc1OC [Example 21, 4-[3-chloro-4-(3-fluorobenzyloxy)-phenylamino]-6,7-dimethoxy-quinazoline] | 
 | 4.30 to 5.00 |  | Fc1cccc(COc2ccc(Nc3ncnc4ccc(Br)cc34)cc2Cl)c1 [Example 22, 4-[3-chloro-4-(3-fluorobenzyloxy)-phenylamino]-6-bromo-quinazoline] | 
6.77 | 4.30 to 5.00 | 4.62 | COc1ccc(-c2ccc3ncnc(Nc4ccc(OCc5cccc(F)c5)c(Cl)c4)c3c2)cc1 [Example 23, 4-[3-chloro-4-(3-fluorobenzyloxy)-phenylamino]-6-(4-methoxy-phenyl)-quinazoline] | 
7.07 | 5.00 to 6.00 | 5.41 | OCc1cccc(-c2ccc3ncnc(Nc4ccc(OCc5cccc(F)c5)c(Cl)c4)c3c2)c1 [Example 24, 4-[3-chloro-4-(3-fluorobenzyloxy)-phenylamino]-6-(3-hydroxymethyl-phenyl)-quinazoline] | 
5.18 | 5.00 to 6.00 | 5.39 | COCCOCc1cccc(-c2ccc3ncnc(Nc4ccc(OCc5cccc(F)c5)c(Cl)c4)c3c2)c1 [Example 26, 4-[3-chloro-4-(3-fluorobenzyloxy)-phenylamino]-6-[3-(methoxyethoxymethylene)-phenyl]-quinazoline] | 
7.64 | 5.00 to 6.00 | 5.82 | OCc1ccc(-c2ccc3ncnc(Nc4ccc(OCc5cccc(F)c5)c(Cl)c4)c3c2)o1 [Example 27, 4-[3-chloro-4-(3-fluorobenzyloxy)-phenylamino]-6-(5-hydroxymethyl-furan-2-yl)-quinazoline] | pIC50 [3, 4]: 5.99
7.31 | 5.00 to 6.00 | 5.69 | CS(=O)(=O)OCc1ccc(-c2ccc3ncnc(Nc4ccc(OCc5cccc(F)c5)c(Cl)c4)c3c2)o1 [Example 28, 4-[3-chloro-4-(3-fluorobenzyloxy)-phenylamino]-6-(5-methanesulfonyloxymethylene-furan-2-yl)-quinazoline] | 
 | 5.00 to 6.00 |  | CN(C)Cc1ccc(-c2ccc3ncnc(Nc4ccc(OCc5cccc(F)c5)c(Cl)c4)c3c2)o1 [Example 29, 4-[3-chloro-4-(3-flurobenzyloxy)-phenylamino]-6-(5-dimethylaminomethyl-furan-2-yl)-quinazoline] | 
6.62 | 5.00 to 6.00 | 5.03 | COc1cc2ncnc(Nc3ccc(OCc4cccc(F)c4)c(Cl)c3)c2cc1OCCCN1CCOCC1 [Example 30, 4-[3-chloro-4-(3-fluorobenzyloxy)-phenylamino]-6-(3-(4-morpholino)propoxy)-7-methoxy-quinazoline] | 

SMILES | pIC50 [2] | pIC50 [3, 5] | pIC50 [3, 6] | also measured
COCCOc1ccc2ncnc(Nc3ccc(OCc4cccc(F)c4)c(Cl)c3)c2c1 [Example 19] | 7.06 | 5.00 to 6.00 | 5.48 | pIC50 [3, 4]: 5.77
CC(=O)OCc1cccc(-c2ccc3ncnc(Nc4ccc(OCc5cccc(F)c5)c(Cl)c4)c3c2)c1 [Example 25, 4-[3-chloro-4-(3-fluorobenzyloxy)-phenylamino]-6-(3-acetoxymethyl-phenyl)-quinazoline] | 7.21 | > 6.00 |  | 
